# Read-outs that look alike come from different tables or passages of the source.
# Columns and labels:
# [1] = tested on: feline amygdala or hippocampal kindled seizures; settings: partial onset and secondarily generalized limbic seizures; cited from earlier work
# [2] = tested on: treated cats; settings: cited from earlier work
# [3] = tested on: cats with epileptic disorders; experiment: Efficacy 3: imepitoin versus phenobarbital in two groups of cats with epileptic disorders
# [4] = tested on: clinically healthy male and female cats; experiment: Safety 1: tolerance in clinically healthy cats after repeated oral administration for 30 days; assay type: in vivo, cat
# Description: In a randomized, controlled, blinded study the tolerance of imepitoin is investigated in clinically healthy male and female cats after repeated oral administration for 30 days.
# Twelve 1-3 years old, male and female domestic short hair cats with a body weight range of 2.8-4.4 kg are assigned to this study. The animals are randomly allocated to two groups, three male and three female animals per group. The test article (imepitoin) is orally administered to the animals of group II at a target dose of 30 mg imepitoin/kg bodyweight twice daily at an interval of 8-12 h on days 0-29. Group I is left untreated serving as controls.
# [5] = tested on: clinically healthy male and female cats; experiment: Safety 2: repeated oral administration of 40 and 80 mg/kg twice daily for 30 days, placebo controlled; assay type: in vivo, cat
# Protocol: FIG. 3 Measurement of Alkaline Phosphatase (AP) in serum following administration of imepitoin in doses of 40 or 80 mg/kg bodyweight twice daily, or placebo. AP is routinely used to judge liver function and diagnose liver pathologies, and an elevated AP is indicative for a variety of diseases. […] Day 0 reflects measurement before treatment start.
# Eighteen 9 months old, male and female domestic short hair cats with a body weight range of 2.3-4.9 kg are assigned to this study. The animals are allocated to three test groups employing a pseudo-random body weight stratification procedure that yielded groups with approximately equal mean body weight, with three male and three female animals per group. The test article (imepitoin) is orally administered to the animals at a target dose of 40 mg imepitoin/kg bodyweight and 80 mg imepitoin/kg bodyweight twice daily at an interval of 8-12 h on days 0-30. The third group receives visually identical placebo tablets, to avoid identification of the Placebo Group.
# Physical examination a day before treatment start and on study days 7, 14 and 30 includes body temperature (rectal), ocular system, musculoskeletal system, cardiovascular system, reproductive system, lymphatic system, behavior, nervous system, integumentary system, respiratory system, urinary system and gastro-intestinal system. In addition, blood and urine samples are analyzed before treatment and after 30 days.
# [6] = tested on: cats with epilepsy; experiment: Efficacy 1: two cats diagnosed with epilepsy, severe generalized seizures; assay type: in vivo, cat
# Protocol: Two cats are diagnosed with epilepsy, having severe generalized seizures.
# The first cat, a 14 year old European Short-Hair cat, had two severe generalized seizures. Both lasted around two minutes, the cat lost consciousness and was disoriented after the seizure. In addition, a fibrosarcoma and hyperthyroidism was diagnosed. The cat was treated twice a day with 100 mg imepitoin, being a dose of 25 mg/kg bodyweight. […] This resolved spontaneously after 10 days of treatment.
# The second cat, 7 years old, experienced two generalized seizures on two consecutive days, and the diagnosis was epilepsy of unknown cause. The cat appeared to be sleepier in the time before occurrence of first seizure.
# [7] = tested on: feline patients with epilepsy; experiment: Efficacy 2: seizure frequency and severity in feline patients versus untreated status at diagnosis; assay type: in vivo, cat
# Description: In some animals, treatment with current standard of care, phenobarbital, is not effective and results in frequent severe seizures despite high-dose treatment.
# [8] = tested on: cats with drug resistant epilepsy; experiment: Efficacy 4: cats with drug-resistant (phenobarbital) epileptic disorders switched to imepitoin; assay type: in vivo, cat
# Protocol: Cats with epileptic disorders are treated with increasing doses of phenobarbital, starting from 3 mg/kg bodyweight twice daily up to the maximum tolerated dose. […] According to this treatment failure this represents drug-resistant epileptic disorders. The treatment of these cats with drug resistant epilepsy is now changed to imepitoin, provided at high doses as for example 30 mg/kg bodyweight twice daily.
# [9] = Pharmacokinetics of imepitoin in cats after oral administration (Example 1); assay type: in vivo, cat; settings: for Tmax / Cmax / AUC(0-t): po; for Tmax: 30 mg/kg; for Cmax / AUC(0-t): Day 0, first dose of 30 mg/kg; for AUC(0-t): read-out: AUC0-6h
# Protocol: FIG. 1 Mean plasma concentration-time curves of imepitoin after the first oral dose of 30 mg/kg imepitoin in male (M) and female cats (F) at Day 0, Day 14 and Day 29 (semi-logarithmic scale).
# When administered orally at a preferred dose of e.g. 30 mg/kg bodyweight twice daily (60 mg/kg bodyweight daily dose) imepitoin the highest plasma concentration […] is reached in median 1 hour (range 0.5 to 3 hours) after administration, in most cases 1 hour.
# Corresponding AUC0-6h-values are 28001 ng·h/mL and 24467 ng·h/mL, respectively.
# [10] = tested on: healthy cats; settings: 20 mg/kg dose; cited from earlier work
# [11] = imepitoin 30 mg/kg twice daily, phenobarbital 3.5 mg/kg twice daily
# [12] = 30 mg/kg bodyweight twice daily, days 0-29
# [13] = 40 and 80 mg/kg body weight twice daily for 30 days
# [14] = 40 and 80 mg/kg body weight twice daily, after 30 days
# [15] = second cat, 10 mg/kg bodyweight twice daily
# [16] = second cat, 20 mg/kg bodyweight twice daily
# [17] = female, domestic short hair, plasma, females (n=3)
# [18] = male, domestic short hair, plasma, males (n=3)
compound,measurement,setting,value
NCC(CC(=O)O)c1ccc(Cl)cc1 (stereo not shown) [baclofen],anticonvulsant effect on kindled seizures,[1],did not show anticonvulsant effects
CC[C@@H](C(N)=O)N1CCCC1=O [Levetiracetam],efficacy as add-on therapy,"[2]; cats with refractory epilepsy under phenobarbital treatment, 10 cats",somewhat effective
CCC1(c2ccccc2)C(=O)NC(=O)NC1=O [phenobarbital],treated cases with sedation,"[2]; cats, recent study (Pakozdy et al. 2013)",over 40%
same,cats poorly controlled / disease not adequately controlled,[3]; [11],30%
same,cats with well controlled epilepsy/seizures,[3]; [11],70%
same,treated cats experiencing at least one adverse event,[3]; [11],65%
same,treated cats experiencing sedation as side effect,[3]; phenobarbital 3.5 mg/kg bodyweight twice daily,approximately 40%
"O=C1N=C(N2CCOCC2)CN1c1ccc(Cl)cc1 [imepitoin, 1-(4-chlorophenyl)-4-(4-morpholinyl)-2,5-dihydro-1H-imidazol-2-one]",liver enzyme measurements versus untreated control,"[4]; 30 mg/kg bodyweight twice daily, FIGS. 2A+2B",no difference between imepitoin-treated and untreated (control) animals
same,Mortality,[4]; [12],not observed
same,"effect on body weight development, food and water consumption, heart rate, respiratory rate and laboratory parameters (hematology, clinical chemistry, urinalysis)",[4]; [12],No evidence of a clear effect
same,sedation,[4]; [12],No sedation is observed in any animal
same,animals with temporary vomitus or choking,"[4]; 30 mg/kg twice daily, from the second week of treatment onwards",3 of 6
same,behavioral changes or sedation,[5]; [13],not noted
same,considerable adverse events,[5]; [13],no considerable adverse events are observed
same,emesis,[5]; [13],intermittently observed in the second and third week of treatment
same,tolerability,[5]; [13],well tolerated by all cats
same,hematological or biochemical abnormalities in blood examination,[5]; [14],No hematological or biochemical abnormalities are noted
same,urine analysis,[5]; [14],physiological results
same,Alkaline Phosphatase (AP) in serum,"[5]; 40 or 80 mg/kg bodyweight twice daily, FIG. 3",in the physiological range with normal variance
same,considerable adverse events,"[6]; first cat, 25 mg/kg bodyweight twice a day",No considerable adverse events were observed
same,tiredness,"[6]; first cat, 25 mg/kg bodyweight twice a day, initially","tiredness 1-1.5 hours after application of the drug, which lasted for about two hours"
same,duration of complete seizure freedom (observation period),"[6]; first cat, 25 mg/kg then 20 mg/kg bodyweight twice a day",6 months
same,seizures under treatment,"[6]; first cat, 14 years, 100 mg (25 mg/kg bodyweight) twice a day",no further seizures
same,tiredness after dose reduction,"[6]; first cat, dose reduced to 20 mg/kg bodyweight after three months",the tiredness disappeared
same,seizures under treatment,[6]; [15],experienced again a seizure
same,tiredness,[6]; [15],resolved the tiredness
same,duration of complete seizure freedom (observation period),[6]; [16],2.5 months
same,tiredness or other adverse events,[6]; [16],No tiredness or other adverse events were observed
same,tiredness,"[6]; second cat, 30 mg/kg bodyweight twice a day",showed the tiredness observed in the first cat already after treatment start
same,response to treatment,"[6]; second cat, 7 years, 30 mg/kg bodyweight twice a day",responded immediately to treatment
same,seizure frequency and severity compared to untreated status at diagnosis,[7]; 30 mg/kg bodyweight twice daily,significantly reduced
same,cats achieving seizure freedom,[7]; 30 mg/kg bodyweight twice daily at an interval of 8-14 hours,at least 40%
same,considerable adverse events,"[7]; 30 mg/kg bodyweight twice daily, seizure-free cats",do also not experience considerable adverse events
same,seizure frequency and/or severity in animals in which phenobarbital is not effective,[7]; 20 to 60 mg/kg bodyweight two- or three-times daily,reduces seizure frequency and/or severity significantly
same,reduction of seizure frequency,"[8]; after change to imepitoin 30 mg/kg bodyweight twice daily, in most cases",at least 50%
same,seizure status after transition from phenobarbital to imepitoin monotherapy,[8]; cats with uncontrolled or continuing seizures under phenobarbital,became seizure free
same,accumulation upon long-term BID dosing,"[9]; 30 mg/kg twice daily, Days 0-29",no accumulation occurs
same,exposure compared to the first dosing day,[9]; after 14 and 29 days of twice daily dosing,slightly lower exposure
same,Tmax,"[9]; both sexes, domestic short hair, plasma, oral, 30 mg/kg bodyweight twice daily, read-out: tMax, median",1 h
same,Tmax,"[9]; both sexes, domestic short hair, plasma, oral, 30 mg/kg bodyweight twice daily, read-out: tMax, range",0.5 to 3 h
same,half-life,"[9]; both sexes, domestic short hair, plasma, oral, 30 mg/kg bodyweight twice daily, read-out: half-life time t1/2 (converted)",1.5 h
same,Cmax,[9]; [17],6640 ng/mL
same,AUC(0-t),[9]; [17],24500 ng·h/mL
same,Cmax,[9]; [18],7050 ng/mL
same,AUC(0-t),[9]; [18],28000 ng·h/mL
same,time of last measurable concentration,[9]; oral 30 mg/kg,more than 18 hours
same,seizure freedom among well controlled cats,[3]; imepitoin 30 mg/kg bodyweight twice daily,the majority of them reach seizure freedom
same,cats poorly controlled / disease not adequately controlled,[3]; [11],about 15%
same,cats with well controlled epilepsy/seizures,[3]; [11],85%
C=CC(N)CCC(=O)O (stereo not shown) [gamma-vinyl GABA],anticonvulsant effect on kindled seizures,[1],potent anticonvulsant effects
NC(=O)CCC/N=C(\c1ccc(Cl)cc1)c1cc(F)ccc1O [progabide],anticonvulsant effect on kindled seizures,[1],potent anticonvulsant effects
[Br-].[K+] [Bromide],treated cats with idiosyncratic allergic pneumonitis,[2]; cats,35-42%
same,treated cats with seizures controlled,[2]; cats,about 35%
Cl.O=C(O)C1CCCN(CCC=C(c2ccccc2)c2ccccc2)C1 (stereo not shown) [SKF89976A],anticonvulsant effect on kindled seizures,[1],potent anticonvulsant effects
NS(=O)(=O)Cc1noc2ccccc12 [zonisamide],"share of healthy cats with adverse reactions (anorexia, diarrhea, vomiting, somnolence, ataxia)",[10],Approximately half

# Source: US9820988B2, “Treatment of epileptic disorders in feline animals” (Boehringer Ingelheim Vetmedica GmbH, priority 2014, dated 2017)
